Source: PubChem BioAssay (NCI)
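48-hour exposure; five concentrations; linearly interpolated endpoints. TGI marks complete inhibition of growth.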 Where a SMILES comes first, the peptide text is derived from it. The star is where a group is joined. Fmoc = O=C(OCC1c2ccccc2-c2ccccc21)*; OtBu = CC(C)(C)O*

Key:
Assay in all cases: growth of human tumour cells (NCI), 48 h
[1] = test system: NCI-H23 lung
[2] = test system: KM20L2 colon
[3] = test system: CCRF-CEM leukemia
[4] = test system: NCI-H460 lung
[5] = test system: OVCAR-5 ovarian
[6] = test system: 786-0 renal
[7] = test system: HCT-116 colon
[8] = test system: K-562 leukemia
[9] = test system: OVCAR-3 ovarian
[10] = test system: SN12C renal
[11] = test system: DLD-1 colon
[12] = test system: IGROV1 ovarian
[13] = test system: LOX IMVI melanoma
[14] = test system: CAKI-1 renal
[15] = test system: SW-620 colon
[16] = test system: UACC-257 melanoma
[17] = test system: RPMI-8226 leukemia
[18] = test system: SNB-19 CNS
[19] = test system: RXF 393 renal
[20] = test system: HCT-15 colon
[21] = test system: HOP-62 NSCLC
[22] = test system: SNB-75 CNS
[23] = test system: SK-MEL-28 melanoma
[24] = test system: SK-OV-3 ovarian
[25] = test system: SK-MEL-2 melanoma
[26] = test system: MALME-3M melanoma
[27] = test system: HL-60(TB) leukemia
[28] = test system: SNB-78 CNS
[29] = test system: SF-268 CNS
[30] = test system: SF-539 CNS
[31] = test system: SK-MEL-5 melanoma
[32] = test system: SR leukemia
[33] = test system: DMS 114 small cell lung
[34] = test system: TK-10 renal
[35] = test system: NCI-H226 lung
[36] = test system: M14 melanoma
[37] = test system: ACHN renal
[38] = test system: OVCAR-8 ovarian
[39] = test system: COLO 205 colon
[40] = test system: DMS 273 small cell lung
[41] = test system: UACC-62 melanoma
[42] = test system: SF-295 CNS
[43] = test system: HCC-2998 colon
[44] = test system: NCI-H522 lung
[45] = test system: UO-31 renal
[46] = test system: LXFL 529 NSCLC
[47] = test system: EKVX NSCLC
[48] = test system: U251 CNS
[49] = test system: MOLT-4 leukemia
[50] = test system: HT29 colon
[51] = test system: A549 NSCLC
[52] = test system: M19-MEL melanoma
[53] = test system: KM12 colon
[54] = test system: MDA-MB-231 breast
[55] = test system: BT-549 breast
[56] = test system: HOP-92 NSCLC
[57] = test system: A498 renal
[58] = test system: MDA-MB-435
[59] = test system: PC-3 prostate
[60] = test system: DU-145 prostate
[61] = test system: MCF7 breast
[62] = test system: OVCAR-4 ovarian
[63] = test system: NCI/ADR-RES ovarian
[64] = test system: HS 578T breast
[65] = test system: T-47D breast
[66] = test system: MDA-N

`C=C(C)C12CC3CC(/C(=N/O)C(C1)/C3=N\O)[C@@]2(C)O` (stereo not given in full) was tested, and the TGI [1] was over 100 µM, the TGI [2] was over 100 µM and the TGI [3] was over 100 µM. It also gave a TGI [4] of over 100 µM, a TGI [5] of over 100 µM and a TGI [6] of over 100 µM. For the same molecule, the TGI [7] was over 100 µM, the TGI [8] was over 100 µM and the TGI [9] was over 100 µM. For the same molecule, the TGI [10] was over 100 µM, the TGI [11] was over 100 µM and the TGI [12] was over 100 µM. For the same molecule, the TGI [13] was over 100 µM, the TGI [14] was over 100 µM and the TGI [15] was over 100 µM. For the same molecule, the TGI [16] was over 100 µM, the TGI [17] was over 100 µM and the TGI [18] was over 100 µM. It also gave a TGI [19] of over 100 µM, a TGI [20] of over 100 µM and a TGI [21] of over 100 µM. For the same molecule, the TGI [22] was over 100 µM, the TGI [23] was over 100 µM and the TGI [24] was over 100 µM. The TGI [25] was over 100 µM, the TGI [26] was over 100 µM and the TGI [27] was over 100 µM. The TGI [28] was over 100 µM, the TGI [29] was over 100 µM and the TGI [30] was over 100 µM. It also gave a TGI [31] of over 100 µM, a TGI [32] of over 100 µM and a TGI [33] of over 100 µM. The TGI [34] was over 100 µM, the TGI [35] was over 100 µM and the TGI [36] was over 100 µM. For the same molecule, the TGI [37] was over 100 µM, the TGI [38] was over 100 µM and the TGI [39] was over 100 µM. It also gave a TGI [40] of over 100 µM, a TGI [41] of over 100 µM and a TGI [42] of over 100 µM. For the same molecule, the TGI [43] was over 100 µM, the TGI [44] was over 100 µM and the TGI [45] was over 100 µM. It also gave a TGI [46] of over 100 µM, a TGI [47] of over 100 µM and a TGI [48] of over 100 µM. It also gave a TGI [49] of over 100 µM, a TGI [50] of over 100 µM and a TGI [51] of over 100 µM. It also gave a TGI [52] of over 100 µM.
`CC(C)C(NC(=O)OCC1c2ccccc2-c2ccccc21)C(=O)NC(CCC(=O)OC(C)(C)C)C(=O)OC(C)(C)C` (stereo not given) (Fmoc-Val-Glu(OtBu)-OtBu; configuration not given here) showed a TGI [1] of over 100 µM, a TGI [3] of over 100 µM and a TGI [4] of over 100 µM. It also gave a TGI [53] of over 100 µM, a TGI [5] of over 100 µM and a TGI [6] of over 100 µM. The TGI [54] was over 100 µM, the TGI [7] was over 100 µM and the TGI [55] was over 100 µM. The TGI [8] was over 100 µM, the TGI [9] was over 100 µM and the TGI [10] was over 31.6 µM. The TGI [12] was over 100 µM, the TGI [13] was over 100 µM and the TGI [14] was over 100 µM. For the same molecule, the TGI [56] was over 100 µM, the TGI [15] was over 100 µM and the TGI [16] was over 100 µM. It also gave a TGI [57] of over 100 µM, a TGI [17] of over 100 µM and a TGI [18] of over 100 µM. The TGI [19] was over 100 µM, the TGI [58] was over 100 µM and the TGI [59] was over 100 µM. The TGI [20] was over 100 µM, the TGI [21] was over 100 µM and the TGI [22] was over 100 µM. It also gave a TGI [60] of over 100 µM, a TGI [23] of over 100 µM and a TGI [24] of over 100 µM. For the same molecule, the TGI [61] was over 100 µM, the TGI [62] was over 100 µM and the TGI [26] was over 100 µM. For the same molecule, the TGI [27] was over 100 µM, the TGI [29] was over 100 µM and the TGI [30] was over 92 µM. For the same molecule, the TGI [31] was over 100 µM, the TGI [32] was over 100 µM and the TGI [34] was over 100 µM. The TGI [35] was over 100 µM, the TGI [36] was over 100 µM and the TGI [37] was over 100 µM. It also gave a TGI [38] of over 100 µM, a TGI [39] of over 31.6 µM and a TGI [41] of over 100 µM. It also gave a TGI [63] of over 100 µM, a TGI [42] of over 89.1 µM and a TGI [43] of over 100 µM. It also gave a TGI [64] of over 100 µM, a TGI [44] of over 100 µM and a TGI [45] of over 100 µM. It also gave a TGI [65] of over 72.7 µM, a TGI [47] of over 100 µM and a TGI [48] of over 100 µM. For the same molecule, the TGI [49] was over 100 µM, the TGI [50] was over 100 µM and the TGI [51] was over 100 µM. The TGI [66] was over 100 µM.
